According to patent EP4538272B1, “CRYSTAL OF N-(BENZOYL)-PHE[…], AND PHARMACEUTICAL COMPOSITION THEREOF, AND PREPARATION METHOD THEREFOR AND USE THEREOF” (Hangzhou Apeloa Medicine Research Institute Co., Ltd., priority 2022, dated 2023):
Values after ≈ are worked out from the molar mass of the structure shown.

Key:
Type in all cases: physicochemical
[1] = Solid-state stability test (high temperature, high humidity, light exposure, acceleration); purity by HPLC, crystal form by XRPD; conditions: for change in the purity and form: 15 days under 60°C, 92.5% RH, 4500lux and 40°C/75% RH, respectively
Description: (§1) Put an appropriate amount of the test sample (the compound shown by Formula (I) in the form of Crystal Form A) on a watch glass, spread it into a thin layer ≤ 5mm thick, and place it under a high temperature of 60°C, a high humidity of 92.5% RH, a light exposure of 4500lux and an acceleration condition of 40°C/75% RH for 15 days, respectively. Sample on the 7th and 15th day to observe the color change of the samples. Analyze the sample purity and crystal form through HPLC and XPRD detection, respectively. Table 5. Test results of Crystal Form A and amorphous stability
as §1, with “(II)” for “(I)”, “B)” for “A)”, “the” for “the 7th and”, “sample.” for “samples.”, “8.” for “5.”, “B” for “A and amorphous”

[2] = Solubility test in biological media (FaSSIF, FeSSIF), HPLC detection; conditions: for solubility (result in words): in FeSSIF and FaSSIF; for solubility at 0.5 h / solubility at 2 h / solubility at 24 h: 37°C
Description: (§2) Add 20mg of the sample (the compound shown by Formula (I) in the form of Crystal Form A) into a 10ml conical tube, and then add 4ml of water or biological medium (FeSSIF (pH 5.0) or FaSSIF (pH 6.5)), respectively. Shake the solution at 37°C for 24h in a constant temperature bath at 1000rpm, and take samples at 0.5h, 2h and 24h, respectively. Filter the samples through an aquo-system microporous filter membrane and discard the initial filtrate to obtain the test solution.
Perform an HPLC detection for the test solution (20µL), and calculate the sample concentration according to the standard curve method. Table 3. Solubility test results of Crystal Form A in different media
as §2, with “(II)” for “(I)”, “B)” for “A)”
Perform an HPLC detection for the test solution (20µL), and calculate the sample concentration according to the standard curve method. Table 6. Solubility test results of Crystal Form B in different media

[3] = Hygroscopicity test with dynamic moisture absorber (DVS); conditions: for Weight gain at 80% RH: 25°C; for hygroscopicity (according to the definition criteria for hygroscopic weight gain): based on weight gain at 80% RH
Description: The hygroscopicity results in the present invention can be measured using a DVS Intrinsic dynamic moisture and gas absorber from Surface Measurement Systems of the UK. Humidity variation: 50%-95%-0%-50%. The humidity change for each gradient within0% ~ 90% is 10%. Airflow: 200ml/min; temperature: 25°C; testing point: one testing point taken every 10% increase in humidity.
Take an appropriate amount of the test sample (the compound shown by Formula (I) in the form of Crystal Form A) to test its hygroscopicity with a dynamic moisture absorber. Table 4. Hygroscopicity test results for Crystal Form A of the present invention
Take an appropriate amount of the test sample (the compound shown by Formula (II) in the form of Crystal Form B) to test its hygroscopicity with a dynamic moisture absorber. Table 7. Hygroscopicity test results for Crystal Form B of the present invention

Compound	purity ([1]; Acceleration 40°C/75%RH, 15d)	purity ([1]; High humidity 92.5%RH, 15d)	purity ([1]; High temperature 60°C, 15d)	purity ([1]; Light exposure 4500lux, 15d)	change in the purity and form [1]	Form (crystal form by XRPD) ([1]; Acceleration 40°C/75%RH, 15d)	Form (crystal form by XRPD) ([1]; High humidity 92.5%RH, 15d)	Form (crystal form by XRPD) ([1]; High temperature 60°C, 15d)	Form (crystal form by XRPD) ([1]; Light exposure 4500lux, 15d)	solubility (result in words) [2]	Weight gain at 80% RH [3]	hygroscopicity (according to the definition criteria for hygroscopic weight gain) [3]	also measured
O=C(N[C@@H](Cc1ccc(N2C(=O)C3(CC3)c3ccc(F)c(F)c32)cc1)C(=O)O)c1c(F)cccc1Cl [Amorphous, (S)-2-(2-chloro-6-fluorobenzoyl amido)-3-(4-(6',7'-difluoro-2'-oxospiro [cyclopropane-1,3'-indoline]-1'-yl)phenyl) propionic acid]	89.70%	93.06%	91.89%	94.91%									
O=C(N[C@@H](Cc1ccc(N2C(=O)C3(CC3)c3ccc(F)c(F)c32)cc1)C(=O)O)c1c(F)cccc1Cl [Crystal Form A, (S)-2-(2-chloro-6-fluorobenzoyl amido)-3-(4-(6',7'-difluoro-2'-oxospiro [cyclopropane-1,3'-indoline]-1'-yl)phenyl) propionic acid]	99.4%	99.3%	99.4%	99.2%	no significant change	Unchanged	Unchanged	Unchanged	Unchanged	good solubility	0.09%	no or almost no hygroscopicity	Form (crystal form by XRPD) ([1]; Acceleration 40°C/75%RH, 7d): Unchanged; purity ([1]; Acceleration 40°C/75%RH, 7d): 99.4%; Form (crystal form by XRPD) ([1]; High humidity 92.5%RH, 7d): Unchanged; purity ([1]; High humidity 92.5%RH, 7d): 99.3%; Form (crystal form by XRPD) ([1]; High temperature 60°C, 7d): Unchanged; purity ([1]; High temperature 60°C, 7d): 99.4%; Form (crystal form by XRPD) ([1]; Light exposure 4500lux, 7d): Unchanged; purity ([1]; Light exposure 4500lux, 7d): 99.2%; solubility (result in words) ([2]; listed as Crystal form A): relatively good
O=C(N[C@@H](Cc1ccc(N2C(=O)C3(CC3)c3ccc(F)c(F)c32)cc1)C(=O)O)c1c(F)cccc1Cl [Crystal Form B, (S)-2-(2-chloro-6-fluorobenzoyl amido)-3-(4-(6',7'-difluoro-2'-oxospiro [cyclopropane-1,3'-indoline]-1'-yl)phenyl) propionic acid]					no significant change	Unchanged	Unchanged	Unchanged	Unchanged	good solubility	0.71%	a slight hygroscopicity	purity ([1]; Acceleration 40°C/75%RH, 0d): 99.79%; purity ([1]; High humidity 92.5%RH, 0d): 99.79%; purity ([1]; High temperature 60°C, 0d): 99.79%; purity ([1]; Light exposure 4500lux, 0d): 99.79%; solubility at 0.5 h ([2]; FaSSIF (pH 6.5)): 3190 µg/mL (≈ 6.19 mM); solubility at 2 h ([2]; FaSSIF (pH 6.5)): 2960 µg/mL (≈ 5.75 mM); solubility at 24 h ([2]; FaSSIF (pH 6.5)): 2790 µg/mL (≈ 5.42 mM); solubility at 0.5 h ([2]; FeSSIF (pH 5.0)): 869 µg/mL (≈ 1.69 mM); solubility at 2 h ([2]; FeSSIF (pH 5.0)): 815 µg/mL (≈ 1.58 mM); solubility at 24 h ([2]; FeSSIF (pH 5.0)): 734 µg/mL (≈ 1.43 mM); solubility (result in words) ([2]; listed as Crystal form B): relatively good
